± gives the standard deviation of the averaged measurements.
What was measured:
AZD4547 = compound: COc1cc(CCc2cc(NC(=O)c3ccc(N4CC(C)NC(C)C4)cc3)n[nH]2)cc(OC)c1 [AZD4547]; test: surviving fraction relative to DMSO-only wells; higher = less growth inhibition; settings: exposure time: 5 days
How it was run: (§1)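 Tumour cell lines were seeded in log phase at 250–500 cells per well into 384-well plates. Starting 24 hours later, inhibitors were present continuously for five days at 0.5, 1, 5, 10, 50, 100, 500 and 1000 nM. Surviving fraction, from CellTiter-Glo luminescence, is normalised to the median of DMSO-only wells. Three screens per line were required, with replicate Pearson r >0.7 and median Z' >0.3 for a line to be kept.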

METHOTREXATE = compound: CN(Cc1cnc2nc(N)nc(N)c2n1)c1ccc(C(=O)N[C@@H](CCC(=O)O)C(=O)O)cc1 [METHOTREXATE]; test: as above; settings: exposure time: 5 days
How it was run: as §1

Test System	surviving fraction (AZD4547; 0.5 nM)	surviving fraction (AZD4547; 1 nM)	surviving fraction (AZD4547; 5 nM)	surviving fraction (AZD4547; 10 nM)	surviving fraction (AZD4547; 50 nM)	surviving fraction (AZD4547; 100 nM)	surviving fraction (AZD4547; 500 nM)	surviving fraction (AZD4547; 1000 nM)	surviving fraction (METHOTREXATE; 0.5 nM)	surviving fraction (METHOTREXATE; 1 nM)	surviving fraction (METHOTREXATE; 5 nM)	surviving fraction (METHOTREXATE; 10 nM)	surviving fraction (METHOTREXATE; 50 nM)	surviving fraction (METHOTREXATE; 100 nM)	surviving fraction (METHOTREXATE; 500 nM)	surviving fraction (METHOTREXATE; 1000 nM)
22RV1 PROSTATE	1 ± 0.06	1.01 ± 0.059	1.02 ± 0.044	1.07 ± 0.056	0.998 ± 0.048	1.03 ± 0.053	1.1 ± 0.084	1.08 ± 0.082	1.06 ± 0.075	0.984 ± 0.11	0.946 ± 0.15	0.964 ± 0.12	0.452 ± 0.016	0.325 ± 0.013	0.285 ± 0.097	0.279 ± 0.099
93VU HEADNECK	1.01 ± 0.063	1.08 ± 0.058	1.08 ± 0.09	1.11 ± 0.05	1.11 ± 0.042	1.16 ± 0.089	1.1 ± 0.077	0.975 ± 0.086	1.03 ± 0.099	1.08 ± 0.091	1.16 ± 0.11	1.18 ± 0.063	0.854 ± 0.081	1.02 ± 0.051	0.702 ± 0.049	0.671 ± 0.018
143B BONE	0.948 ± 0.096	1.011 ± 0.0042	1.04 ± 0.014	1.02 ± 0.067	0.921 ± 0.13	1.01 ± 0.06	0.994 ± 0.04	0.974 ± 0.1	1.06 ± 0.018	1.04 ± 0.016	1.03 ± 0.041	0.471 ± 0.022	0.379 ± 0.033	0.174 ± 0.014	0.085 ± 0.0071	0.0875 ± 0.016
A549 LUNG	0.984 ± 0.02	1.03 ± 0.064	1.01 ± 0.039	1.02 ± 0.069	0.9867 ± 0.0075	1.03 ± 0.066	0.983 ± 0.026	1.031 ± 0.007	1.06 ± 0.07	1.06 ± 0.043	1.04 ± 0.023	1.06 ± 0.036	0.237 ± 0.0061	0.219 ± 0.0071	0.213 ± 0.0055	0.218 ± 0.0055
ASKA SYNOVIAL	1.15 ± 0.06	1.11 ± 0.015	1.2 ± 0.058	1.12 ± 0.021	1.16 ± 0.036	1.08 ± 0.084	0.877 ± 0.059	0.658 ± 0.041	1.13 ± 0.14	1.07 ± 0.067	1.13 ± 0.048	1.08 ± 0.083	1.23 ± 0.094	1.18 ± 0.087	1.19 ± 0.086	1.12 ± 0.09
BT20 BREAST	1.12 ± 0.13	1.08 ± 0.071	1.11 ± 0.059	1.13 ± 0.061	1.05 ± 0.072	1.04 ± 0.072	1.15 ± 0.043	0.968 ± 0.15	1.16 ± 0.083	1.15 ± 0.095	1.12 ± 0.075	1.1 ± 0.087	0.992 ± 0.1	0.995 ± 0.089	0.998 ± 0.021	0.989 ± 0.1
BT549 BREAST	1.16 ± 0.2	1.06 ± 0.055	1.16 ± 0.18	1.19 ± 0.13	1.04 ± 0.12	0.95 ± 0.096	0.968 ± 0.094	0.861 ± 0.052	1.11 ± 0.16	1.04 ± 0.034	1 ± 0.063	1.03 ± 0.11	0.107 ± 0.012	0.044 ± 0.0053	0.0323 ± 0.0055	0.039 ± 0.011
CADOES1 SOFT TISSUE	0.988 ± 0.032	1.02 ± 0.097	0.977 ± 0.1	0.973 ± 0.046	0.912 ± 0.085	0.955 ± 0.017	1.09 ± 0.11	0.992 ± 0.11	0.973 ± 0.11	1.02 ± 0.14	0.869 ± 0.052	0.672 ± 0.12	0.288 ± 0.013	0.229 ± 0.0093	0.226 ± 0.021	0.242 ± 0.011
CAL51 BREAST	0.9767 ± 0.007	0.977 ± 0.035	0.937 ± 0.029	0.849 ± 0.052	0.7553 ± 0.0068	0.738 ± 0.022	0.616 ± 0.021	0.602 ± 0.059	1.06 ± 0.039	1.02 ± 0.021	1.02 ± 0.035	0.962 ± 0.052	0.243 ± 0.0049	0.142 ± 0.015	0.0995 ± 0.0051	0.09133 ± 0.00076
CAL120 BREAST	0.945 ± 0.043	0.9817 ± 0.0068	0.937 ± 0.03	0.888 ± 0.025	0.713 ± 0.029	0.681 ± 0.019	0.552 ± 0.05	0.491 ± 0.039	0.961 ± 0.032	0.96 ± 0.086	0.721 ± 0.027	0.31 ± 0.026	0.328 ± 0.0043	0.336 ± 0.0094	0.333 ± 0.0045	0.335 ± 0.012
CASKI CERVIX	0.927 ± 0.055	0.951 ± 0.033	1.01 ± 0.014	1.02 ± 0.073	0.961 ± 0.053	1.03 ± 0.048	0.805 ± 0.02	0.548 ± 0.019	0.941 ± 0.045	0.892 ± 0.058	0.946 ± 0.073	0.967 ± 0.031	0.533 ± 0.019	0.2303 ± 0.0015	0.192 ± 0.018	0.208 ± 0.027
CHLA90 AUTONOMIC GANGLIA	0.994 ± 0.075	1.04 ± 0.099	1.07 ± 0.07	1.01 ± 0.014	0.883 ± 0.051	0.692 ± 0.039	0.568 ± 0.029	0.473 ± 0.041	1.037 ± 0.006	1.01 ± 0.084	1 ± 0.035	0.995 ± 0.037	1.08 ± 0.11	1.13 ± 0.12	1.16 ± 0.11	1.19 ± 0.033
CME SYNOVIAL	1.21 ± 0.046	1.09 ± 0.063	1.29 ± 0.11	1.14 ± 0.14	1 ± 0.075	0.935 ± 0.097	0.761 ± 0.051	0.724 ± 0.035	1.2 ± 0.098	1.12 ± 0.069	0.755 ± 0.15	0.558 ± 0.062	0.612 ± 0.019	0.612 ± 0.034	0.561 ± 0.048	0.648 ± 0.046
COLO320DM LARGE INTESTINE	1.08 ± 0.027	1.11 ± 0.049	0.994 ± 0.036	0.997 ± 0.21	1.1 ± 0.076	1.05 ± 0.1	1.08 ± 0.078	1.1 ± 0.2	1.05 ± 0.045	1.04 ± 0.02	1.09 ± 0.056	0.648 ± 0.066	0.315 ± 0.011	0.315 ± 0.0081	0.307 ± 0.0097	0.295 ± 0.027
DU4475 BREAST	1.12 ± 0.37	0.979 ± 0.16	1.03 ± 0.27	0.998 ± 0.13	1.15 ± 0.3	1.08 ± 0.21	1.11 ± 0.21	1 ± 0.22	0.815 ± 0.2	0.988 ± 0.11	0.943 ± 0.16	0.933 ± 0.11	1.02 ± 0.049	1.09 ± 0.092	1.03 ± 0.13	1.01 ± 0.032
H23 LUNG	0.965 ± 0.059	1.06 ± 0.052	1.03 ± 0.055	1.04 ± 0.02	1.01 ± 0.037	1.05 ± 0.028	0.979 ± 0.075	0.964 ± 0.066	1.06 ± 0.054	0.996 ± 0.068	1.01 ± 0.062	0.461 ± 0.084	0.254 ± 0.015	0.236 ± 0.022	0.236 ± 0.016	0.222 ± 0.014
HCC38 BREAST	0.972 ± 0.24	0.947 ± 0.062	1.02 ± 0.2	1.11 ± 0.22	0.78 ± 0.14	0.801 ± 0.14	0.66 ± 0.11	0.785 ± 0.046	1.39 ± 0.32	1.22 ± 0.13	1.37 ± 0.2	1.43 ± 0.15	1.05 ± 0.28	0.803 ± 0.038	0.385 ± 0.086	0.359 ± 0.032
HCC70 BREAST	1.03 ± 0.11	1.12 ± 0.082	1.16 ± 0.045	1.14 ± 0.07	1.1 ± 0.091	1.15 ± 0.018	1.03 ± 0.098	0.946 ± 0.093	1.04 ± 0.079	1.14 ± 0.092	1.01 ± 0.09	1.12 ± 0.046	0.842 ± 0.043	0.789 ± 0.023	0.763 ± 0.025	0.787 ± 0.041
HCC78 LUNG	1.04 ± 0.2	1.14 ± 0.23	1.03 ± 0.13	0.986 ± 0.11	1.08 ± 0.039	1.13 ± 0.25	1.11 ± 0.25	1.1 ± 0.25	1 ± 0.064	0.847 ± 0.19	0.914 ± 0.12	0.831 ± 0.13	0.503 ± 0.056	0.448 ± 0.058	0.421 ± 0.032	0.41 ± 0.039
HCC202 BREAST	0.984 ± 0.2	1.17 ± 0.39	0.964 ± 0.22	1.04 ± 0.26	1.31 ± 0.41	1.16 ± 0.1	1.52 ± 0.38	1.18 ± 0.21	1.3 ± 0.45	1.26 ± 0.38	1.21 ± 0.097	1 ± 0.25	1.14 ± 0.16	1.16 ± 0.37	0.945 ± 0.21	1.15 ± 0.13
